Laboratory results from ChEMBL document CHEMBL1139799, “Identification of novel chemical inhibitors for ubiquitin C-terminal hydrolase-L3 by virtual screening” (Bioorg Med Chem, 2007).
The source made the active and inactive calls. The rule behind the calls is not given here.

Experiments:
[1] = molecular target: T1, Ubiquitin carboxyl-terminal hydrolase isozyme L3 (Homo sapiens, UniProt P15374); test: Inhibition of human UCH-L3 hydrolysis activity
T1 sequence (P15374 whole entry): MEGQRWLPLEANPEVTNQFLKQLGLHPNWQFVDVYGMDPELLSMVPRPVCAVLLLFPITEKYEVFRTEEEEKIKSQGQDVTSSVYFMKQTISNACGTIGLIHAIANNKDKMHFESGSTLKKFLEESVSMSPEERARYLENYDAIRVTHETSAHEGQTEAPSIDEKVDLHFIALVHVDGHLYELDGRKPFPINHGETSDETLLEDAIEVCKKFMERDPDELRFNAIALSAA

[2] = molecular target: T2, Ubiquitin carboxyl-terminal hydrolase isozyme L3 (Homo sapiens) (UniProt P15374); test: Inhibition of human UCH-L3 hydrolysis activity at 350 uM relative to control; set-up: scale not given: the % may be the effect or the level left
T2 sequence (whole entry): T1 sequence (P15374 whole entry)

[3] = molecular target: T2, Ubiquitin carboxyl-terminal hydrolase isozyme L3 (Homo sapiens); test: Inhibition of human UCH-L3 hydrolysis activity at 387 uM
[4] = molecular target: T2, Ubiquitin carboxyl-terminal hydrolase isozyme L3 (Homo sapiens); test: Inhibition of human UCH-L3 hydrolysis activity at 375 uM relative to control; set-up: scale not given: the % may be the effect or the level left
[5] = molecular target: T2, Ubiquitin carboxyl-terminal hydrolase isozyme L3 (Homo sapiens); test: Inhibition of human UCH-L3 hydrolysis activity at 331 uM
[6] = molecular target: T2, Ubiquitin carboxyl-terminal hydrolase isozyme L3 (Homo sapiens); test: Inhibition of human UCH-L3 hydrolysis activity at 386 uM
[7] = molecular target: T2, Ubiquitin carboxyl-terminal hydrolase isozyme L3 (Homo sapiens); test: Inhibition of human UCH-L3 hydrolysis activity at 334 uM
[8] = molecular target: T2, Ubiquitin carboxyl-terminal hydrolase isozyme L3 (Homo sapiens); test: Inhibition of human UCH-L3 hydrolysis activity at 380 uM relative to control; set-up: scale not given: the % may be the effect or the level left

Cc1ccc(C(=O)C2=C(O)C(=O)N(Cc3cccnc3)C2c2ccc(F)cc2)o1 (stereo not given)
IC50 [1]: 123 µM | Activity [2]: 76.8%

Nc1nc(CSc2nnc(-c3ccco3)n2-c2ccccc2)cs1
Activity [3]: inactive

Cc1ccc(C(=O)C2=C(O)C(=O)N(Cc3ccccc3)C2c2cccnc2)o1 (stereo not given)
IC50 [1]: 103 µM

COc1ccc(C2C(C(=O)c3cccs3)=C(O)C(=O)N2c2nncs2)cc1 (stereo not given)
IC50 [1]: 154 µM | Activity [4]: 76.5%

CCS(=O)(=O)Nc1cccc(C2=NN(C(C)=O)C(c3cccs3)C2)c1 (stereo not given)
Activity [5]: inactive

COc1cccc(N(CC(=O)NC2CCCC2)S(=O)(=O)c2ccccc2)c1
Activity [6]: inactive

COc1ccc(N(CC(=O)NC2CC2)S(=O)(=O)c2ccc(C)cc2)cc1
Activity [7]: inactive

Cn1c(SCc2nc(-c3cccs3)no2)nnc1-c1c[nH]c2ccccc12
Activity [8]: 16.2%
